Laboratory results: PMC9468151, “Identification of a binding site on soluble RANKL that can be targeted to inhibit soluble RANK-RANKL interactions and treat osteoporosis” (Nature Communications, 2022)
Values joined by “and” are separate entries in the source; they are usually repeats but may differ in a detail not shown here. Equal values may be shown once.

Tests used:
C3H10T1/2 = C3H10T1/2 proliferation and osteoblastic mineralization; assay type: cell-based, mouse; details: C3H10T1/2 or human primary osteoblasts, osteogenic differentiation medium
Experimental: Supplementary Fig.5. In Vitro Activity Evaluation and Signal Pathway Study of compound S3-15. a Western blot of PI3K and AKT phosphorylation in RAW264.7 cells treating with or without S315 and sRANKL at different point-in-time. b EC50 curve and representative OC microphotographs of mature osteoclasts apoptosis assay with S3-15. n=3 biological replicates for each concentration. EC50 values were calculated by GraphPad Prism 8 software. c EC50 curve and representative OC microphotographs of mature osteoclasts apoptosis assay with S3, S3-03 and S3-05. n=3 biological replicates for each concentration. EC50 values were calculated by GraphPad Prism […]
pits in dose-dependent manner (mouse BMMs). e Precursor osteoblasts C3H10T12 proliferation-promoting of S3, S3-05 and S3-15. f Osteoblastic mineralization after treatment with S3, S3-05 and S3-15. C3H10T12 cells were cultured in osteoblast induction differentiation medium with or without treatment for 14 days and determinate of calcium deposition in differentiated osteoblasts by Alizarin red staining. Error bars represent ± s.d. n=3. Statistical difference was determined by unpaired two-tailed Student’s t test. Significant difference p value is < 0.05. Scale […]
(1 picture or pasted object on this page, not shown here)

OVX rats = test: Osteoporosis therapeutic study in OVX rats (micro-CT); assay type: in vivo, rat
Experimental: Female SD rats or C57BL/6 mice were cared until they grown up to 6 months old or 10 weeks old, respectively. Then we subjected them to either bilateral ovariectomy or sham operation after anesthesia with 10% chloral hydrate (0.3 mL/100 g). Then all the rats or mice were intramuscular injected of penicillin to prevent infection in the first week of surgery. For rat experiments, after 12 weeks of operation, 3 rats from sham-operated or ovariectomized groups were random selected to determine bone mass by micro-CT imaging biopsy to verify successful produced bone loss(data unshown). Then the OVX rats were individually administrated with S3-15, S3, and S3-05 orally with (10 mg/kg/day) for another 12 weeks. For mouse experiments, after 4 weeks of surgery, the OVX mice were treated with 10 mg/kg/day S3-15 for another 4 weeks.
The weight of rats or mice were recorded every week in the treatment period. After treatment, the rats were harvested, the serum, heart, liver, spleen, lung, kidney, thymus, and femurs were all collected and subjected to subsequent analysis. The right femurs of rats or mice were cleaned excess soft tissue, fixed in 10% formalin, and processed them for microcomputed tomography (micro-CT) analysis. Left mice femurs were collected and excarnate for biomechanical strength testing. Mice peripheral blood were as well as collected for flow cytometry analyzing.
The right femurs of rats or mice were further analyzed with micro-CT on Inveon PET/CT (Siemens, Germany). We used micro-CT to scan the femur from the femoral head to the femoral condyle, using 19 μm resolution, 80 kV 500uA, 360 projection, 3000-6000 image threshold, full rotation cone beam. Three-dimensional reconstruction and histomorphometric analyses of trabecular bone were conducted with the IAW (Inveon analysis workstation) analysis software. The trabecular extended 1 mm (rat) or 0.5 mm (mice) proximally to the end of the distal growth plate over 2 mm (rats) or 1 mm (mice) toward the diaphysis was selected as the region of interest (ROI) for the analysis. The resulting two-dimensional images of trabecular bone in relative cross sections were shown in grayscale. Trabecular bone parameters were measured including bone volume/tissue volume (BV/TV), bone surface area/bone volume (BS/BV), trabecular number (Tb.N), trabecular thickness (Tb.Th), trabecular separation(Tb.Sp) and trabecular pattern factor(Tb.P.F).

[1] = system: sRANKL induced osteoclast differentiation; test: In vitro anti-osteoclastogenesis activity determination (TRAP staining); assay type: cell-based, mouse; details: replicates
Procedure, shortened: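 Mouse bone-marrow macrophages in 10 ng/mL M-CSF were stimulated with 100 ng/mL sRANKL plus compound at 9 concentrations, refreshed every 2 days, triplicate wells. After 5 days TRAP-stained osteoclasts were counted; inhibition normalised to untreated and unstimulated controls, IC50 by nonlinear regression.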

[2] = system: RANKL-induced resorption pits; test: Hydroxyapatite resorption assay; assay type: cell-based, mouse
Experimental: BMMs (1 × 10^5 cells/well) were cultured onto 6-well collagen-coated plates and stimulated with 100 ng/mL sRANKL and 10 ng/mL M-CSF for 3 days to generate early stage of osteoclasts began differentiation. Then early-stage osteoclasts were gently harvested using cell dissociation solution, and seeded into OsteoAssay Surface (hydroxyapatite-coated) 24-well plates. Early-stage osteoclasts were continue incubated in a medium containing sRANKL and M-CSF with or without treatment. After 48 h, wells were bleached to remove cells, followed by image acquisition for the measurement of resorbed areas using a Leica microscope. The percentage of surface resorbed was analyzed using ImageJ software.

[3] = In vitro cytotoxicity assay (MTT); assay type: cell-based, mouse; details: mouse, RAW264.7 cells
Procedure, shortened: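 Log-phase cells were seeded at 6 × 10^3 per well and incubated 24 h, with viability read by MTT. Growth inhibition (%) was calculated from OD relative to vehicle wells. CC50 came from nonlinear regression curve fitting.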

[4] = OVX rats, S3-15 oral 10 mg/kg/day 12 weeks, individual animals, 10 mg/kg/day

In the case of `CC(=O)/C(=N\Nc1ccccc1C(=O)O)C(=O)Nc1ccccn1` [S3-15], the “cell proliferation and mineralization” value (C3H10T1/2) is reported as “increase cell proliferation and mineralization”, the BV/TV (OVX rats; OVX rats, S3-15 oral 10 mg/kg/day 12 weeks, distal femur, individual animals, 10 mg/kg/day) is reported as 0.6788 and 0.422 and 0.4058 and 0.5401 and 0.3909 and 0.3235 and 0.4349 and 0.3705 and 0.4806 and the Tb.N (OVX rats; [4]) is reported as 6.402 1/mm and 4.855 1/mm and 5.594 1/mm and 4.923 1/mm and 3.924 1/mm and 4.525 1/mm and 4.231 1/mm and 4.365 1/mm and 4.683 1/mm. The Tb.Sp (OVX rats; [4]) was 0.05016 mm and 0.1191 mm and 0.1062 mm and 0.09343 mm and 0.1553 mm and 0.1495 mm and 0.1335 mm and 0.1442 mm and 0.1109 mm, the Tb.Th (OVX rats; [4]) was 0.05016 mm and 0.1191 mm and 0.1062 mm and 0.09343 mm and 0.1553 mm and 0.1495 mm and 0.1335 mm and 0.1442 mm and 0.1109 mm and the “BV/TV of OVX rats” value (OVX rats; oral 10 mg/kg/day, 12 weeks, in words) was “increased”. For the same molecule, the “OC inhibitory ratio, sRANKL induced (fig. 3c IC50 curve data)” value (“OC inhibitory ratio, sRANKL induced” below) ([1]; 0.003 μM) was 7.9602 and 6.219 and 4.726, the “OC inhibitory ratio, sRANKL induced” value ([1]; 0.01 μM) was -4.229 and 6.965 and 4.975 and the “OC inhibitory ratio, sRANKL induced” value ([1]; 0.03 μM) was 19.1542 and 29.1045 and 33.5821. For the same molecule, the “OC inhibitory ratio, sRANKL induced” value ([1]; 0.1 μM) was 31.8408 and 36.5672 and 39.0547, the “OC inhibitory ratio, sRANKL induced” value ([1]; 0.3 μM) was 40.2985 and 51.7413 and 33.8308 and the “OC inhibitory ratio, sRANKL induced” value ([1]; 1 μM) was 50.7463 and 58.209 and 52.4876. The “OC inhibitory ratio, sRANKL induced” value ([1]; 3.3 μM) was 76.6169 and 75.8706 and 78.607, the “OC inhibitory ratio, sRANKL induced” value ([1]; 10 μM) was 91.791 and 91.0448 and 90.2985 and the “OC inhibitory ratio, sRANKL induced” value ([1]; 33 μM) was 99.005 (2×) and 98.5075. For the same molecule, the “resorption pits area quantification (fig. 6g)” value ([2]; S3-15 0.1 μM, vehicle 95, 90, 94) was 80 and 85 and 76, the “resorption pits area quantification (fig. 6g)” value ([2]; S3-15 1 μM) was 57 and 64 and 65 and the “resorption pits area quantification (fig. 6g)” value ([2]; S3-15 10 μM) was 34 and 29 and 27. For the same molecule, the “bone resorption / RANKL-induced resorption pits” value ([2]; in words) was “attenuated bone resorption in a dose-dependent manner”, the viability at 24 h, 0.08 μM ([3]; conc. 0.08 μM, read-out: cell viability relative to 0 μM (fig. S5e)) was 107% and the viability at 24 h, 10 μM ([3]; conc. 10 μM, read-out: cell viability relative to 0 μM (fig. S5e)) was 137%. For the same molecule, the CC50 at 24 h ([3]; RAW264.7, MTT) was 62.5 µM.
